Measured values from patent publication US8993509B2, “Method for treatment of cachexia by administering inhibitors of adipose triglyceride lipase expression or activity” (priority 2010, dated 2015).

Tests used:
ATGL [1] = molecular target: T1, ATGL (Homo sapiens, UniProt Q96AD5); details: expressed ATGL or native ATGL in hepatocytes; cited from earlier work
T1 sequence (Q96AD5 1-504): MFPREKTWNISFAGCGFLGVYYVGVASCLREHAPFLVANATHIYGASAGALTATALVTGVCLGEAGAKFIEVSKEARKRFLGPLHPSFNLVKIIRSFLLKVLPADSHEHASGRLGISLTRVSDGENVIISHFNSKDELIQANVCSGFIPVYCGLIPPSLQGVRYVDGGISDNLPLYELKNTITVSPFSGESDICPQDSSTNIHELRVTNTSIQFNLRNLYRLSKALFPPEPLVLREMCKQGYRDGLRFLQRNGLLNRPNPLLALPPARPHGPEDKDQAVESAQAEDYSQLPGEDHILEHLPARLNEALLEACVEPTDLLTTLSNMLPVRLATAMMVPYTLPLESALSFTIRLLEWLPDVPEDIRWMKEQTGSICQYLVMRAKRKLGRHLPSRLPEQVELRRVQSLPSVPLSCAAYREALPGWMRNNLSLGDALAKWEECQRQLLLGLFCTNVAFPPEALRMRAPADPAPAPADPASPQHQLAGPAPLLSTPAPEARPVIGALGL

iPLA2β = molecular target: T2, iPLA2β (Homo sapiens, UniProt O60733); details: cited from earlier work
T2 sequence (O60733 1-806): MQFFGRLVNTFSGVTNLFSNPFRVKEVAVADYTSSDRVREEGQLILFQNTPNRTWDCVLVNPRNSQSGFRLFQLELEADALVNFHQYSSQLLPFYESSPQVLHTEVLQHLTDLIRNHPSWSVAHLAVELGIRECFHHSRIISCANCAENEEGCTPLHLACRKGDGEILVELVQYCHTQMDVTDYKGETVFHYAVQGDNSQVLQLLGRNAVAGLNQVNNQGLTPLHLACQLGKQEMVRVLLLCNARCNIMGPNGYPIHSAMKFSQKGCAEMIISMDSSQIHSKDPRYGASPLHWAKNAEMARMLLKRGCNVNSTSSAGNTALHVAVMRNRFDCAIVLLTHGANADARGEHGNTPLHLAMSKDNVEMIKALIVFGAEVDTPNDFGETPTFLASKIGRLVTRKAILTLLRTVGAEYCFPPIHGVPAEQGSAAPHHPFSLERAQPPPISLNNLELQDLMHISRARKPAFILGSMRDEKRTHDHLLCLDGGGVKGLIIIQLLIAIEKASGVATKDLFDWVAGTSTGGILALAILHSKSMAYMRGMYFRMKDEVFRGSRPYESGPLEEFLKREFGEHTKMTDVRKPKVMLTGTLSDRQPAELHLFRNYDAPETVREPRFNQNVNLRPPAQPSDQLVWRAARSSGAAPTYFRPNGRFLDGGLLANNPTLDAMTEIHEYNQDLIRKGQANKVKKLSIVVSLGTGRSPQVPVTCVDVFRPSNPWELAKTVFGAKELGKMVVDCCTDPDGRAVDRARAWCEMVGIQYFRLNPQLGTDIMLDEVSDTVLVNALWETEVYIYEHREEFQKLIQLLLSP

iPLA2γ = molecular target: T3, iPLA2γ (Homo sapiens, UniProt Q9NP80); details: cited from earlier work
T3 sequence (Q9NP80 1-782): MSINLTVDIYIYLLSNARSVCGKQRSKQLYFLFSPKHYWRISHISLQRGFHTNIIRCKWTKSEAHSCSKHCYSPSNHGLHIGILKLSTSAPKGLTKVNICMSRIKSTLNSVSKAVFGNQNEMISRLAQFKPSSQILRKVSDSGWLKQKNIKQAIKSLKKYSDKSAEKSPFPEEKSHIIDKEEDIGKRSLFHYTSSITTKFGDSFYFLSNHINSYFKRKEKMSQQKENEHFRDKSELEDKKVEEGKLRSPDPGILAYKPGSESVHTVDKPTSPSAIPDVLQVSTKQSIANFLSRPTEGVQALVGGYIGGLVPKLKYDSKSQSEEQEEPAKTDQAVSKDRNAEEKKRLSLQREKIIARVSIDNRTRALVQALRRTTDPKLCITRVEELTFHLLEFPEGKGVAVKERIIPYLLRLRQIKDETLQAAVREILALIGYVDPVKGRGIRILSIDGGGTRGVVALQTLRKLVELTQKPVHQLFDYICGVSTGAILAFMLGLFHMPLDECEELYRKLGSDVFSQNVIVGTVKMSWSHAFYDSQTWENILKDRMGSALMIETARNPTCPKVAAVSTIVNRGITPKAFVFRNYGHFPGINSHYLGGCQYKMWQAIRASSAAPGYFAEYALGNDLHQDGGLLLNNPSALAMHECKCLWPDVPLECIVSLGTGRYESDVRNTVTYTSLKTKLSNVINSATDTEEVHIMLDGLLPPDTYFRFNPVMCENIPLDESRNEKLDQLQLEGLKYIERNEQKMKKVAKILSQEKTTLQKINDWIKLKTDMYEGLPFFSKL

ATGL [2] = molecular target: T4, ATGL (Mus musculus, UniProt Q8BJ56); test: Lipase assay (triglyceride hydrolase assay) with candidate inhibitors; type: biochemical; details: versus control (DMSO), FIG. 9
T4 construct: The lipid-free infranatant (cytosolic fraction) was collected and, used for triacyl-glycerol (TG) hydrolase assays; from tissue; host or cells: mouse white adipose tissue, cytosolic fraction (100,000 g infranatant)
T4 sequence (Q8BJ56 1-486): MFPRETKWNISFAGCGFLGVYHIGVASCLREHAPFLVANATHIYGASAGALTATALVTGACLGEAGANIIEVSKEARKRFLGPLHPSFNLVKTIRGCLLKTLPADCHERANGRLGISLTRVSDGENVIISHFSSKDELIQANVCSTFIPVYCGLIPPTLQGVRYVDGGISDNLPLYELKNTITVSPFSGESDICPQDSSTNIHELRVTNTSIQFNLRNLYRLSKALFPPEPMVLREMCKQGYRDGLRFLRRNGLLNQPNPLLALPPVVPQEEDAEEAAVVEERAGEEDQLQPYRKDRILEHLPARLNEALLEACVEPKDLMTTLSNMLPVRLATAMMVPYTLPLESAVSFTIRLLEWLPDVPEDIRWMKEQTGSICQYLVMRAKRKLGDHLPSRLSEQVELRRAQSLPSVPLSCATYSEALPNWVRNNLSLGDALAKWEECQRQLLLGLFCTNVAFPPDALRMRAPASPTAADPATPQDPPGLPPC
Protocol: Mesenteric, retroperitoneal, omental and, gonadal white adipose tissues (WAT) of wild-type (wt), Adipose Tri-Glyceride Lipase-knockout (ATGL-ko) and, Hormone Sensitive Lipase-knockout (HSL-ko) mice were removed surgically and, washed in phosphate-buffered saline (PBS) containing 1 mM ethylenediaminetetraacetic-acid (EDTA). The tissue was homogenized in lysis buffer (0.25 M sucrose, 1 mM EDTA, 1 mM dithiothreitol, 20 μg/ml leupeptin, 2 μg/ml antipain, 1 μg/ml pepstatin, pH 7.0) using a Magna Lyser (Roche diagnostics GmbH, Mannheim, Germany). The WAT lysate was centrifuged at 100,000 g for 1 hour (h) at 4° C. The lipid-free infranatant (cytosolic fraction) was collected and, used for triacyl-glycerol (TG) hydrolase assays. The substrate for the measurement of lipase activity containing triolein and [9, 10-3H(N)-triolein] (NEN Life Science Products, Boston, Mass.) as radioactive tracer was emulsified with phosphatidylcholine/phosphatidylinositol using a conventional ultrasound sonicator. The cytosolic fractions supplemented with or, without a specific inhibitor for HSL were incubated at 37° C. for 60 min under constant shaking. The reaction was terminated by addition of 3.25 ml methanol/chloroform/heptane (10:9:7) and, 1 ml of 0.1 M potassium carbonate and, 0.1 M boric acid (pH 10.5). After centrifugation at 800 g for 20 minutes (min) the radioactivity in 1 ml of the upper phase was determined by liquid scintillation counting in a LS 6500 Multi-Purpose Scintillation Counter from Beckman Coulter Inc. (Fullerton, Calif.).
For determination of lipase activity 0.1 ml of cytosolic extracts and 0.1 ml substrate are incubated in a water bath at 37° C. for 60 min. The reaction is terminated by adding 3.25 ml of methanol/chloroform/heptane (10:9:7) and 1 ml of 0.1 M potassium carbonate, 0.1 M boric acid, pH 10.5. After centrifugation (800 g, 20 min) the radioactivity in 1 ml of the upper phase is determined by liquid scintillation counting. Neutral lipase activity is measured in 50 mM potassium phosphate buffer, pH 7.0 and 2.5% defatted BSA. The substrate for neutral TG lipase activity contained 33 nmol triolein/assay with [9,10-^3H(N)]-triolein (40.000 cpm/nmol, NEN Life Science Products) as radioactive tracer for COS-7 cells and 167 nmol/assay for 3T3-L1 adipocytes (7300 cpm/nmol). The substrates for cholesteryl esterase and retinyl esterase activity contained 10 nmol/assay of cholesteryl oleate or retinyl palmitate and the corresponding tracers cholesteryl [9,10-^3H]-oleate or retinyl [9,10-^3H(N)]-palmitate (50.000 cpm/nmol). For determination of phospholipase activity in cytosolic extracts the substrate contained 20 nmol/assay phosphatidylcholine and [dipalmitoyl-1-^14C]-phosphatidylcholine (12.000 cpm/nmol). […]

O=C1O/C(=C/Br)CC[C@@H]1c1cccc2ccccc12 [(R)-Bromoenol lactone]
ATGL inhibition activity (ATGL [1]): ATGL inhibition activity
inhibition of iPLA2β (iPLA2β): inhibits
inhibition of iPLA2γ (iPLA2γ): inhibits

COC(=O)C(O)(c1cc(C)c(O)c(C)c1)C(F)(F)F (stereo not shown) [Compound 3]
inhibition of ATGL (ATGL activity, % control) (ATGL [2]): inhibit ATGL

Oc1ccc(/C=N/N2CCN(c3ccccc3)CC2)cc1O [Compound 4]
inhibition of ATGL (ATGL activity, % control) (ATGL [2]): largest degree of inhibition

CN(C)/N=C/c1ccccc1OC(=O)c1cccnc1 [Compound 7]
inhibition of ATGL (ATGL activity, % control) (ATGL [2]): inhibit ATGL

CCOC(=O)c1nn(-c2ccc(OCC)cc2)cc1O [Compound 9]
inhibition of ATGL (ATGL activity, % control) (ATGL [2]): inhibit ATGL
